Measured values from US20110129871A1, “CULTURE MEDIUM ENABLING STAPHYLOCOCCUS AUREUS TO BE DIFFERENTIATED FROM COAGULASE-NEGATIVE STAPHYLOCOCCI” (priority 2008, published 2011).

How the values were obtained:
PIPLC = molecular target: T1, PIPLC (Staphylococcus aureus, UniProt P45723); assay: PIPLC activity of Staphylococcus aureus strains in microplates with two fluorogenic PIPLC substrates; type: cell-based; parameters: key to PIPLC activity: +: strains permitting the production of fluorescence at least twice that of the background noise; −: a signal emitted by the medium that is less than the background noise; details: microplate, 24 hours at 37° C.; for number of strains that display PIPLC activity in the presence of the substrate: among the nineteen strains of Staphylococcus aureus ATCC tested; for PIPLC activity: substrate 0.4 g/l (4-methylumbelliferyl) or 0.2 g/l (3-chloro) in medium derived from OAA
T1 construct: endogenous in cells; host or cells: 19 Staphylococcus aureus ATCC strains (e.g. ATCC 9144, ATCC 49775) growing in culture medium
Procedure: 19 strains of Staphylococcus aureus ATCC are tested for their PIPLC activity in microplates. The tests are performed with two different fluorogenic substrates of PIPLC: 4-methylumbelliferyl-myo-inositol-1-phosphate and 3-chloro-7-hydroxy-4-methylcoumarin myo-inositol-phosphate, added at different concentrations to the constituents of the medium derived from the OAA medium described in example 1.
The strains tested, at an initial concentration of 10^8 (CFU)/ml, are diluted in a tryptone salt broth, so as to obtain a final concentration at 10^3 CFU/ml.
10 μl of this bacterial suspension is added to 200 μl of culture medium. Each strain was incubated for 24 hours at 37° C. with each of the media in the microplate reader marketed by the company TECAN under the name GENios™.
The + signs correspond to the strains permitting the production of fluorescence at least twice that of the background noise, The − signs correspond to a signal emitted by the medium that is less than the background noise.

PC-PLC (lecithinase) = details: strains ATCC 33592 and ATCC 700699, 10 CFU per well; 0.4 g/l substrate, pH 7.2, 37° C., 72h, versus uninoculated control medium (FIG. 1)
Procedure: The dynamics of the PC-PLC activity of two strains of Staphylococcus aureus ATCC 33592 and ATCC 700699 was evaluated in microplates in the presence of the medium given below. Reading of the appearance of fluorescence in each of the various wells of the microplate was then carried out in kinetic conditions.
The medium used is of the following composition, pH 7.2:
10 CFU of Staphylococcus aureus ATCC 33592 and ATCC 700699 were inoculated in the wells of the microplate in the presence of the medium described above. The microplate was then incubated at 37° C. in a TECAN reader to evaluate the PC-PLC activity of the two strains of Staphylococcus aureus in the form of the kinetics of hydrolysis of the 4MU-CP substrate, i.e. appearance of fluorescence.
Measurement of the appearance of fluorescence following hydrolysis of the 4MU-CP substrate was carried out over an incubation time of 72h for the two strains of Staphylococcus aureus tested (STA ATCC 33592 and STA ATCC 700699) versus the uninoculated control medium (baseline).

T1 sequence (P45723 27-312): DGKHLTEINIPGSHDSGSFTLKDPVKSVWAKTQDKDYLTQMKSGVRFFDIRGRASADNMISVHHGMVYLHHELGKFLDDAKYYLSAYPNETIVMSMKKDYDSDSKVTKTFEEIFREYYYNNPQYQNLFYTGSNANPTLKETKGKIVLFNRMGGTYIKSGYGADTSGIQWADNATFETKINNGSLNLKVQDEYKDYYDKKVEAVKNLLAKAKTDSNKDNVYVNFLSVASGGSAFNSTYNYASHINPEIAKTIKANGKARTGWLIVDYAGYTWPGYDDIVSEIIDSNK

Row | Structure (SMILES) | number of strains that display PIPLC activity in the presence of the substrate (PIPLC) | PIPLC activity (PIPLC; strain ATCC 6538) | PIPLC activity (PIPLC; strain ATCC 9144) | PIPLC activity (PIPLC; strain ATCC 12598) | PIPLC activity (PIPLC; strain ATCC 13150) | PIPLC activity (PIPLC; strain ATCC 29213) | PIPLC activity (PIPLC; strain ATCC 33591) | PIPLC activity (PIPLC; strain ATCC 33592) | PIPLC activity (PIPLC; strain ATCC 33593) | PIPLC activity (PIPLC; strain ATCC 33862) | PIPLC activity (PIPLC; strain ATCC 43300) | PIPLC activity (PIPLC; strain ATCC 43866) | PIPLC activity (PIPLC; strain ATCC 49775) | PIPLC activity (PIPLC; strain ATCC 51153) | PIPLC activity (PIPLC; strain ATCC 51740) | PIPLC activity (PIPLC; strain ATCC 700698) | PIPLC activity (PIPLC; strain ATCC 700699) | PIPLC activity (PIPLC; strain ATCC 700788) | PIPLC activity (PIPLC; strain ATCC 700789) | PIPLC activity (PIPLC; strain CCM 6188) | other results
1 | Cc1cc(=O)oc2cc(OP(=O)(O)OC3C(O)C(O)C(O)C(O)C3O)ccc12 (centres unmarked) [4-Methylumbelliferyl myo-inositol-1-phosphate] | 17 | + (strains permitting the production of fluorescence at least twice that of the background noise) | + (strains permitting the production of fluorescence at least twice that of the background noise) | + (strains permitting the production of fluorescence at least twice that of the background noise) | + (strains permitting the production of fluorescence at least twice that of the background noise) | + (strains permitting the production of fluorescence at least twice that of the background noise) | + (strains permitting the production of fluorescence at least twice that of the background noise) | + (strains permitting the production of fluorescence at least twice that of the background noise) | + (strains permitting the production of fluorescence at least twice that of the background noise) | + (strains permitting the production of fluorescence at least twice that of the background noise) | + (strains permitting the production of fluorescence at least twice that of the background noise) | + (strains permitting the production of fluorescence at least twice that of the background noise) | − | + (strains permitting the production of fluorescence at least twice that of the background noise) | + (strains permitting the production of fluorescence at least twice that of the background noise) | + (strains permitting the production of fluorescence at least twice that of the background noise) | + (strains permitting the production of fluorescence at least twice that of the background noise) | + (strains permitting the production of fluorescence at least twice that of the background noise) | + (strains permitting the production of fluorescence at least twice that of the background noise) | − | 
2 | Cc1cc(=O)oc2cc(OP(=O)([O-])OCC[N+](C)(C)C)ccc12 [4MU-CP, 4-Methylumbelliferyl choline-phosphate] |  |  |  |  |  |  |  |  |  |  |  |  |  |  |  |  |  |  |  |  | detection of Staphylococcus aureus by hydrolysis of the fluorogenic PC-PLC substrate (appearance of fluorescence) (PC-PLC (lecithinase)): permits the detection and discrimination of Staphylococcus aureus
3 | Cc1c(Cl)c(=O)oc2cc(OP(=O)([O-])OC3C(O)C(O)C(O)C(O)C3O)ccc12.[Li+] (centres unmarked) [3-Chloro-7-hydroxy-4-methylcoumarin myo-inositol-1-phosphate] | 18 | + (strains permitting the production of fluorescence at least twice that of the background noise) | + (strains permitting the production of fluorescence at least twice that of the background noise) | + (strains permitting the production of fluorescence at least twice that of the background noise) | + (strains permitting the production of fluorescence at least twice that of the background noise) | + (strains permitting the production of fluorescence at least twice that of the background noise) | + (strains permitting the production of fluorescence at least twice that of the background noise) | + (strains permitting the production of fluorescence at least twice that of the background noise) | + (strains permitting the production of fluorescence at least twice that of the background noise) | + (strains permitting the production of fluorescence at least twice that of the background noise) | + (strains permitting the production of fluorescence at least twice that of the background noise) | + (strains permitting the production of fluorescence at least twice that of the background noise) | − | + (strains permitting the production of fluorescence at least twice that of the background noise) | + (strains permitting the production of fluorescence at least twice that of the background noise) | + (strains permitting the production of fluorescence at least twice that of the background noise) | + (strains permitting the production of fluorescence at least twice that of the background noise) | + (strains permitting the production of fluorescence at least twice that of the background noise) | + (strains permitting the production of fluorescence at least twice that of the background noise) | + (strains permitting the production of fluorescence at least twice that of the background noise) | 
